Data as given in US20240401154A1, “SYNTHESIS AND PREPARATION OF ULTRA-LOW VISCOSITY AND HIGH MAGNETIC SUSCEPTIBILITY MAGNETIC IONIC LIQUIDS” (priority 2023, published 2024).
Where two headings read alike, the source gives them in different places. Marks after values point to notes of the source that are not given here.

Legend:
[1] = previously studied MILs, Table 2, cited from earlier work
[2] = previously referenced MILs, cited from earlier work
[3] = GC-FID; previously referenced MILs; cited from earlier work
[4] = SQUID magnetometer; previously studied MILs, Table 2; cited from earlier work
[5] = Magnetic properties by SQUID magnetometer; type: physicochemical; conditions: applied magnetic field H=20 kOe; Curie-Weiss fit
Experimental: Magnetic properties were analyzed using a magnetic susceptibility balance (MSB, Sherwood Scientific, Cambridge, UK) and a Quantum Design Superconducting Quantum Interference Device (SQUID) magnetometer (MPMS XL-7). The magnetic properties of transition metal MILs were further studied using a SQUID magnetometer to confirm their paramagnetic nature as well as if any magnetic transition occurs in the samples.
The magnetic properties of transition metal MILs were further studied using a SQUID magnetometer to confirm their paramagnetic nature as well as if any magnetic transition occurs in the samples.
The calculated μeff of 5.21μB for the [Ni(C6-DGE)6][Ni(hfacac)3]2 MIL (FIG. 12A) from SQUID matches quite well with the theoretical μtheo value (5.31μB, TABLE 1) and also with that obtained from MSB measurements (5.48μB).

[6] = acetone, chloroform, dichloromethane, acetonitrile, methanol, ethanol, diethyl ether, ethyl acetate, isopropanol at 20% (w/v)
[7] = hexane, heptane, benzene, toluene at 10% (w/v)
[8] = hexane, heptane, benzene, toluene at 20% (w/v)

| SMILES | Viscosity ([1]; reported at 23.7° C.) | Solubility [2, 6] | Solubility [2, 7] | Solubility ([2]; water at 0.01% (w/v)) | Onset of MIL volatilization (° C.)^1 [3] [°C] | Effective magnetic moment [4] | Viscosity ([1]; reported at 19.9° C.) | Solubility [2, 8] | Viscosity ([1]; reported at 20.0° C.) | μeff from SQUID [5] [μB] |
| --- | --- | --- | --- | --- | --- | --- | --- | --- | --- | --- |
| CCCCCCCCCCCCCC[P+](CCCCCC)(CCCCCC)CCCCCC.O=C(C=C([O-])C(F)(F)F)C(F)(F)F.O=C(C=C([O-])C(F)(F)F)C(F)(F)F.O=C(C=C([O-])C(F)(F)F)C(F)(F)F.[Ni+2] [[P66614][Ni(hfacac)3]] | 927.9^c | S^b (soluble in acetone, chloroform, dichloromethane, acetonitrile, methanol, ethanol, diethyl ether, ethyl acetate, and isopropanol at 20% (w/v).) | S^a (soluble in hexane, heptane, benzene, and toluene at 10% (w/v).) | S^f (insoluble in water at 0.01% (w/v).) | 225 | 2.80^f | – | – | – | – |
| CCCCCCCCN(CCCCCCCC)C(=O)COCC(=O)N(CCCCCCCC)CCCCCCCC.CCCCCCCCN(CCCCCCCC)C(=O)COCC(=O)N(CCCCCCCC)CCCCCCCC.O=C(C=C([O-])C(F)(F)F)C(F)(F)F.O=C(C=C([O-])C(F)(F)F)C(F)(F)F.O=C(C=C([O-])C(F)(F)F)C(F)(F)F.O=C(C=C([O-])C(F)(F)F)C(F)(F)F.O=C(C=C([O-])C(F)(F)F)C(F)(F)F.O=C(C=C([O-])C(F)(F)F)C(F)(F)F.[Ni+2].[Ni+2].[Ni+2] [[Ni(TODGA)2][Ni(hfacac)3]2] | – | S^b (soluble in acetone, chloroform, dichloromethane, acetonitrile, methanol, ethanol, diethyl ether, ethyl acetate, and isopropanol at 20% (w/v).) | S^a (soluble in hexane, heptane, benzene, and toluene at 10% (w/v).) | S^f (insoluble in water at 0.01% (w/v).) | 235 | 11.79^f | 33,830^e | – | – | – |
| CCCCCCCCCCCCCC[P+](CCCCCC)(CCCCCC)CCCCCC.O=C(C=C([O-])C(F)(F)F)C(F)(F)F.O=C(C=C([O-])C(F)(F)F)C(F)(F)F.O=C(C=C([O-])C(F)(F)F)C(F)(F)F.[Mn+2] [[P66614][Mn(hfacac)3]] | 401.8^c | S^b (soluble in acetone, chloroform, dichloromethane, acetonitrile, methanol, ethanol, diethyl ether, ethyl acetate, and isopropanol at 20% (w/v).) | S^a (soluble in hexane, heptane, benzene, and toluene at 10% (w/v).) | S^f (insoluble in water at 0.01% (w/v).) | 155 | 5.80^f | – | – | – | – |
| CCCCCCCCN(CCCCCCCC)C(=O)COCC(=O)N(CCCCCCCC)CCCCCCCC.CCCCCCCCN(CCCCCCCC)C(=O)COCC(=O)N(CCCCCCCC)CCCCCCCC.CCCCCCCCN(CCCCCCCC)C(=O)COCC(=O)N(CCCCCCCC)CCCCCCCC.O=C(C=C([O-])C(F)(F)F)C(F)(F)F.O=C(C=C([O-])C(F)(F)F)C(F)(F)F.O=C(C=C([O-])C(F)(F)F)C(F)(F)F.O=C(C=C([O-])C(F)(F)F)C(F)(F)F.O=C(C=C([O-])C(F)(F)F)C(F)(F)F.O=C(C=C([O-])C(F)(F)F)C(F)(F)F.O=C(C=C([O-])C(F)(F)F)C(F)(F)F.O=C(C=C([O-])C(F)(F)F)C(F)(F)F.O=C(C=C([O-])C(F)(F)F)C(F)(F)F.O=C(C=C([O-])C(F)(F)F)C(F)(F)F.O=C(C=C([O-])C(F)(F)F)C(F)(F)F.O=C(C=C([O-])C(F)(F)F)C(F)(F)F.[Ho+3].[Ho+3].[Ho+3].[Ho+3] [[Ho(TODGA)3][Ho(hfacac)4]3] | – | S^b (soluble in acetone, chloroform, dichloromethane, acetonitrile, methanol, ethanol, diethyl ether, ethyl acetate, and isopropanol at 20% (w/v).) | S^a (soluble in hexane, heptane, benzene, and toluene at 10% (w/v).) | S^f (insoluble in water at 0.01% (w/v).) | 192 | 20.86^f | 10,530^e | S^c (soluble in hexane, heptane, benzene, and toluene at 20% (w/v).) | – | – |
| CCCCCCCCCCCCCC[P+](CCCCCC)(CCCCCC)CCCCCC.CCCCCCCCCCCCCC[P+](CCCCCC)(CCCCCC)CCCCCC.CCCCCCCCCCCCCC[P+](CCCCCC)(CCCCCC)CCCCCC.[Cl-].[Cl-].[Cl-].[Cl-].[Cl-].[Cl-].[Gd+3] [[P66614]3[GdCl6]] | – | – | – | – | – | 7.86^f | – | – | 28,230^d | – |
| CCCCCCCCN(CCCCCCCC)C(=O)COCC(=O)N(CCCCCCCC)CCCCCCCC.CCCCCCCCN(CCCCCCCC)C(=O)COCC(=O)N(CCCCCCCC)CCCCCCCC.O=C(C=C([O-])C(F)(F)F)C(F)(F)F.O=C(C=C([O-])C(F)(F)F)C(F)(F)F.O=C(C=C([O-])C(F)(F)F)C(F)(F)F.O=C(C=C([O-])C(F)(F)F)C(F)(F)F.O=C(C=C([O-])C(F)(F)F)C(F)(F)F.O=C(C=C([O-])C(F)(F)F)C(F)(F)F.[Co+2].[Co+2].[Co+2] [[Co(TODGA)2][Co(hfacac)3]2] | – | S^b (soluble in acetone, chloroform, dichloromethane, acetonitrile, methanol, ethanol, diethyl ether, ethyl acetate, and isopropanol at 20% (w/v).) | S^a (soluble in hexane, heptane, benzene, and toluene at 10% (w/v).) | S^f (insoluble in water at 0.01% (w/v).) | 231 | 13.34^f | 28,310^e | – | – | – |
| CCCCCCCCN(CCCCCCCC)C(=O)COCC(=O)N(CCCCCCCC)CCCCCCCC.CCCCCCCCN(CCCCCCCC)C(=O)COCC(=O)N(CCCCCCCC)CCCCCCCC.CCCCCCCCN(CCCCCCCC)C(=O)COCC(=O)N(CCCCCCCC)CCCCCCCC.O=C(C=C([O-])C(F)(F)F)C(F)(F)F.O=C(C=C([O-])C(F)(F)F)C(F)(F)F.O=C(C=C([O-])C(F)(F)F)C(F)(F)F.O=C(C=C([O-])C(F)(F)F)C(F)(F)F.O=C(C=C([O-])C(F)(F)F)C(F)(F)F.O=C(C=C([O-])C(F)(F)F)C(F)(F)F.O=C(C=C([O-])C(F)(F)F)C(F)(F)F.O=C(C=C([O-])C(F)(F)F)C(F)(F)F.O=C(C=C([O-])C(F)(F)F)C(F)(F)F.O=C(C=C([O-])C(F)(F)F)C(F)(F)F.O=C(C=C([O-])C(F)(F)F)C(F)(F)F.O=C(C=C([O-])C(F)(F)F)C(F)(F)F.[Dy+3].[Dy+3].[Dy+3].[Dy+3] [[Dy(TODGA)3][Dy(hfacac)4]3] | – | S^b (soluble in acetone, chloroform, dichloromethane, acetonitrile, methanol, ethanol, diethyl ether, ethyl acetate, and isopropanol at 20% (w/v).) | S^a (soluble in hexane, heptane, benzene, and toluene at 10% (w/v).) | S^f (insoluble in water at 0.01% (w/v).) | 175 | 20.00^f | 9,210^e | S^c (soluble in hexane, heptane, benzene, and toluene at 20% (w/v).) | – | – |
| CCCCCCCCN(CCCCCCCC)C(=O)COCC(=O)N(CCCCCCCC)CCCCCCCC.CCCCCCCCN(CCCCCCCC)C(=O)COCC(=O)N(CCCCCCCC)CCCCCCCC.CCCCCCCCN(CCCCCCCC)C(=O)COCC(=O)N(CCCCCCCC)CCCCCCCC.O=C(C=C([O-])C(F)(F)F)C(F)(F)F.O=C(C=C([O-])C(F)(F)F)C(F)(F)F.O=C(C=C([O-])C(F)(F)F)C(F)(F)F.O=C(C=C([O-])C(F)(F)F)C(F)(F)F.O=C(C=C([O-])C(F)(F)F)C(F)(F)F.O=C(C=C([O-])C(F)(F)F)C(F)(F)F.O=C(C=C([O-])C(F)(F)F)C(F)(F)F.O=C(C=C([O-])C(F)(F)F)C(F)(F)F.O=C(C=C([O-])C(F)(F)F)C(F)(F)F.O=C(C=C([O-])C(F)(F)F)C(F)(F)F.O=C(C=C([O-])C(F)(F)F)C(F)(F)F.O=C(C=C([O-])C(F)(F)F)C(F)(F)F.[Gd+3].[Gd+3].[Gd+3].[Gd+3] [[Gd(TODGA)3][Gd(hfacac)4]3] | – | S^b (soluble in acetone, chloroform, dichloromethane, acetonitrile, methanol, ethanol, diethyl ether, ethyl acetate, and isopropanol at 20% (w/v).) | S^a (soluble in hexane, heptane, benzene, and toluene at 10% (w/v).) | S^f (insoluble in water at 0.01% (w/v).) | 183 | 14.90^f | 13,640^e | S^c (soluble in hexane, heptane, benzene, and toluene at 20% (w/v).) | – | – |
| CCCCCCOC(=O)COCC(=O)OCCCCCC.CCCCCCOC(=O)COCC(=O)OCCCCCC.CCCCCCOC(=O)COCC(=O)OCCCCCC.CCCCCCOC(=O)COCC(=O)OCCCCCC.CCCCCCOC(=O)COCC(=O)OCCCCCC.CCCCCCOC(=O)COCC(=O)OCCCCCC.O=C(C=C([O-])C(F)(F)F)C(F)(F)F.O=C(C=C([O-])C(F)(F)F)C(F)(F)F.O=C(C=C([O-])C(F)(F)F)C(F)(F)F.O=C(C=C([O-])C(F)(F)F)C(F)(F)F.O=C(C=C([O-])C(F)(F)F)C(F)(F)F.O=C(C=C([O-])C(F)(F)F)C(F)(F)F.[Ni+2].[Ni+2].[Ni+2] [MIL 2] | – | – | – | – | – | – | – | – | – | 5.21 |
| CCCCCCCCCCCCCC[P+](CCCCCC)(CCCCCC)CCCCCC.O=C(C=C([O-])C(F)(F)F)C(F)(F)F.O=C(C=C([O-])C(F)(F)F)C(F)(F)F.O=C(C=C([O-])C(F)(F)F)C(F)(F)F.[Co+2] [[P66614][Co(hfacac)3]] | 575.8^c | S^b (soluble in acetone, chloroform, dichloromethane, acetonitrile, methanol, ethanol, diethyl ether, ethyl acetate, and isopropanol at 20% (w/v).) | S^a (soluble in hexane, heptane, benzene, and toluene at 10% (w/v).) | S^f (insoluble in water at 0.01% (w/v).) | 130 | 4.30^f | – | – | – | – |
